{"source": "patent US8143421B2", "about": "“Broadspectrum substituted benzimidazole sulfonamide HIV protease inhibitors” (priority 2002, dated 2012)", "key": {"mutant G": {"test_system": "mutant G", "test": "Antiviral spectrum, fold resistance towards mutant G", "assay_type": "cell-based", "conditions": "FR=IC50(mutant strain)/IC50(HIV-1 strain LAI)"}, "mutant D": {"test_system": "mutant D", "test": "Antiviral spectrum, fold resistance towards mutant D", "assay_type": "cell-based", "conditions": "FR=IC50(mutant strain)/IC50(HIV-1 strain LAI)"}, "in vitro": {"test": "in vitro", "conditions": "human"}, "mutant B": {"test_system": "mutant B", "test": "Antiviral spectrum, fold resistance towards mutant B", "assay_type": "cell-based", "conditions": "FR=IC50(mutant strain)/IC50(HIV-1 strain LAI)"}, "mutant F": {"test_system": "mutant F", "test": "Antiviral spectrum, fold resistance towards mutant F", "assay_type": "cell-based", "conditions": "FR=IC50(mutant strain)/IC50(HIV-1 strain LAI)"}, "mutant A": {"test_system": "mutant A", "assay_type": "cell-based", "conditions": "FR=IC50(mutant strain)/IC50(HIV-1 strain LAI)"}, "mutant E": {"test_system": "mutant E", "assay_type": "cell-based", "conditions": "FR=IC50(mutant strain)/IC50(HIV-1 strain LAI)"}, "mutant C": {"test_system": "mutant C", "test": "Antiviral spectrum, fold resistance towards mutant C", "assay_type": "cell-based", "conditions": "FR=IC50(mutant strain)/IC50(HIV-1 strain LAI)"}, "mutant H": {"test_system": "mutant H", "test": "Antiviral spectrum, fold resistance towards mutant H", "assay_type": "cell-based", "conditions": "FR=IC50(mutant strain)/IC50(HIV-1 strain LAI)"}, "HIV-1 strain LAI": {"test_system": "HIV-1 strain LAI", "test": "Cellular anti-HIV assay, MT4 cells, MTT readout, wild type HIV-1 strain LAI", "assay_type": "cell-based", "experimental": "The compounds of the present invention were examined for anti-viral activity in a cellular assay. […] The cellular assay was performed according to the following procedure."}}, "note": "Read-outs that look alike come from different tables or passages of the source."}
{"smiles": "CC(C)CN(C[C@@H](O)[C@H](Cc1ccccc1)NC(=O)O[C@H]1CO[C@H]2OCC[C@H]21)S(=O)(=O)c1ccc2ncn(Cc3ccccc3)c2c1", "note": "[Compound 1, [(1S,2R)-2-hydroxy-3-[(2-methylpropyl)[[1-(phenylmethyl)benzimidazol-6-yl]sulfonyl]amino]-1-(phenylmethyl)-propyl]carbamic acid, [(3R,3aS,6aR)-hexahydrofuro[2,3-b]furan-3-yl]ester]", "values": [{"measurement": "FR towards mutant G", "setting": "mutant G", "result": 275}, {"measurement": "FR towards mutant D", "setting": "mutant D", "result": 1.5}, {"measurement": "CC50 at 5 days", "setting": "in vitro", "result": 63.1, "unit": "µM"}, {"measurement": "FR towards mutant B", "setting": "mutant B", "result": 3.1}, {"measurement": "FR towards mutant F", "setting": "mutant F", "result": 40}, {"measurement": "FR value towards mutant A", "setting": "mutant A", "result": 9.3}, {"measurement": "FR towards mutant E", "setting": "mutant E", "result": 1.6}, {"measurement": "FR towards mutant C", "setting": "mutant C", "result": 1.1}, {"measurement": "FR towards mutant H", "setting": "mutant H", "result": 33}, {"measurement": "IC50", "setting": "HIV-1 strain LAI; Human immunodeficiency virus 1, 120 h, Table 1, MT4 cells, five days, HIV-1 strain LAI, read-out: pIC50 (LAI) (converted)", "result": 0.794, "unit": "nM"}, {"measurement": "IC50", "setting": "HIV-1 strain LAI; Human immunodeficiency virus 1, MT4, Table 4, wild type HIV-LAI strain, read-out: WT (pIC50 against wild type HIV-LAI strain) (converted)", "result": 0.794, "unit": "nM"}]}
